Results: the NIST ThermoML archive (doi:10.1016/j.jct.2014.03.023)

Columns and labels:
[1] = Pendant drop shape
[2] = molar heat capacity at constant pressure; conditions: 101 kPa, Liquid, Small sample (50 mg) DSC
[3] = wn = mass fraction of the nth substance listed; conditions: Pendant drop shape, w1 = 1

CC[n+]1ccc(C)cc1.O=S(=O)([N-]S(=O)(=O)C(F)(F)F)C(F)(F)F
Conditions	molar heat capacity at constant pressure [J/K/mol]	surface tension liquid-gas [mN/m]
[1], 298.2 K	–	24.3
[1], 303.2 K	–	23.9
[1], 313.2 K	–	23.1
[1], 323.2 K	–	22.2
[2], 296.2 K	627	–
[2], 300.2 K	634	–
[2], 304.2 K	637	–
[2], 308.2 K	640	–
[2], 312.2 K	644	–
[2], 316.2 K	647	–
[2], 320.2 K	649	–
[2], 324.2 K	652	–
[2], 328.2 K	655	–
[2], 332.2 K	659	–
[2], 336.2 K	665	–
[2], 340.2 K	669	–
[2], 344.2 K	674	–
[2], 348.2 K	679	–
[2], 352.2 K	685	–
[2], 356.2 K	691	–
[2], 360.2 K	697	–
[2], 364.2 K	703	–
[2], 368.2 K	708	–
[2], 372.2 K	715	–

CCn1cc[n+](C)c1.N#CN=C=[N-] [1-ethyl-3-methylimidazolium dicyanamide]
[1]
Conditions	surface tension liquid-gas [mN/m]
298.2 K	56.4
303.2 K	56
313.2 K	54.8
323.2 K	53.5

CCn1cc[n+](C)c1.N#CN=C=[N-] [1-ethyl-3-methylimidazolium dicyanamide] + CC[n+]1ccc(C)cc1.O=S(=O)([N-]S(=O)(=O)C(F)(F)F)C(F)(F)F
[3]
Conditions	surface tension liquid-gas [mN/m]
298.2 K	56.4
303.2 K	56
313.2 K	54.8
323.2 K	53.5
